Measured values as given in publication PMC11899342, “Novel Triazeneindole Antibiotics: Synthesis and Hit-to-Lead Optimization” (International Journal of Molecular Sciences, 2025).

Test system: MRSA clinical isolates
Experiment: Antibiotic susceptibility profile of MRSA clinical isolates (EUCAST breakpoints)
Format: cell-based, Staphylococcus aureus
Text: Clinical MRSA isolates with multidrug resistance were obtained from the collection of the Research Institute of Antimicrobial Chemotherapy, Smolensk State Medical Academy.

SMILES: CO/N=C(\C(=O)N[C@@H]1C(=O)N2C(C(=O)O)=C(COC(C)=O)CS[C@H]12)c1csc(N)n1 [CEF, cefotaxime]
- Drug sensibility profile (MRSA strain 1): S
- Drug sensibility profile (MRSA strain 2): S
- Drug sensibility profile (MRSA strain 3): S
- Drug sensibility profile (MRSA strain 4): S
- Drug sensibility profile (MRSA strain 5): S
- Drug sensibility profile (MRSA strain 6): R
- Drug sensibility profile (MRSA strain 7): S
- Drug sensibility profile (MRSA strain 8): R
- Drug sensibility profile (MRSA strain 9): S
- Drug sensibility profile (MRSA strain 10): S
- Drug sensibility profile (MRSA strain 12): S
- Drug sensibility profile (MRSA strain 13): R
- Drug sensibility profile (MRSA strain 14): S
- Drug sensibility profile (MRSA strain 15): S
- Drug sensibility profile (MRSA strain 16): S
- Drug sensibility profile (MRSA strain 17): S
- Drug sensibility profile (MRSA strain 18): S
- Drug sensibility profile (MRSA strain 21): R
- Drug sensibility profile (MRSA strain 23): S
- Drug sensibility profile (MRSA strain 24): S
- Drug sensibility profile (MRSA strain 25): S
- Drug sensibility profile (MRSA strain 26): S S S S S S S
- Drug sensibility profile (MRSA strain 27): R
- Drug sensibility profile (MRSA strain 28): S
- Drug sensibility profile (MRSA strain 29): S
- Drug sensibility profile (MRSA strain 30): S
- Drug sensibility profile (MRSA strain 31): R
- Drug sensibility profile (MRSA strain 34): R
- Drug sensibility profile (MRSA strain 35): R
- Drug sensibility profile (MRSA strain 36): S S S S S S S
- Drug sensibility profile (MRSA strain 40): S
- Drug sensibility profile (MRSA strain 41): R
- Drug sensibility profile (MRSA strain 42): S
- Drug sensibility profile (MRSA strain 43): S
- Drug sensibility profile (MRSA strain 44): R
- Drug sensibility profile (MRSA strain 45): S
- Drug sensibility profile (MRSA strain 46): S
- Drug sensibility profile (MRSA strain 48): R
- Drug sensibility profile (MRSA strain 49): S
- Drug sensibility profile (MRSA strain 50): R
- Drug sensibility profile (MRSA strain 51): S

SMILES: CCC[C@@H]1C[C@@H](C(=O)N[C@@H]([C@H]2O[C@H](SC)[C@H](O)[C@@H](O)[C@H]2O)[C@H](C)Cl)N(C)C1 [CLIND, clindamycin]
- Drug sensibility profile (MRSA strain 1): S
- Drug sensibility profile (MRSA strain 2): R
- Drug sensibility profile (MRSA strain 3): S
- Drug sensibility profile (MRSA strain 4): S
- Drug sensibility profile (MRSA strain 5): R
- Drug sensibility profile (MRSA strain 6): R
- Drug sensibility profile (MRSA strain 7): R
- Drug sensibility profile (MRSA strain 8): S
- Drug sensibility profile (MRSA strain 9): S
- Drug sensibility profile (MRSA strain 10): S
- Drug sensibility profile (MRSA strain 12): R
- Drug sensibility profile (MRSA strain 13): S
- Drug sensibility profile (MRSA strain 14): R
- Drug sensibility profile (MRSA strain 15): S
- Drug sensibility profile (MRSA strain 16): R
- Drug sensibility profile (MRSA strain 17): S
- Drug sensibility profile (MRSA strain 18): S
- Drug sensibility profile (MRSA strain 21): R
- Drug sensibility profile (MRSA strain 23): R
- Drug sensibility profile (MRSA strain 24): S
- Drug sensibility profile (MRSA strain 25): S
- Drug sensibility profile (MRSA strain 26): S S S S S S S
- Drug sensibility profile (MRSA strain 27): S
- Drug sensibility profile (MRSA strain 28): S
- Drug sensibility profile (MRSA strain 29): S
- Drug sensibility profile (MRSA strain 30): S
- Drug sensibility profile (MRSA strain 31): R
- Drug sensibility profile (MRSA strain 34): S
- Drug sensibility profile (MRSA strain 35): S
- Drug sensibility profile (MRSA strain 36): S S S S S S S
- Drug sensibility profile (MRSA strain 40): R
- Drug sensibility profile (MRSA strain 41): S
- Drug sensibility profile (MRSA strain 42): S
- Drug sensibility profile (MRSA strain 43): S
- Drug sensibility profile (MRSA strain 44): S
- Drug sensibility profile (MRSA strain 45): R
- Drug sensibility profile (MRSA strain 46): S
- Drug sensibility profile (MRSA strain 48): R
- Drug sensibility profile (MRSA strain 49): S
- Drug sensibility profile (MRSA strain 50): R
- Drug sensibility profile (MRSA strain 51): S

SMILES: CCCCCCCCCC(=O)N[C@@H](Cc1c[nH]c2ccccc12)C(=O)N[C@H](CC(N)=O)C(=O)N[C@@H](CC(=O)O)C(=O)N[C@@H]1C(=O)NCC(=O)N[C@@H](CCCN)C(=O)N[C@@H](CC(=O)O)C(=O)N[C@H](C)C(=O)N[C@@H](CC(=O)O)C(=O)NCC(=O)N[C@H](CO)C(=O)N[C@@H]([C@H](C)CC(=O)O)C(=O)N[C@@H](CC(=O)c2ccccc2N)C(=O)O[C@@H]1C [Daptomycine]
- Drug sensibility profile (MRSA strain 1): S
- Drug sensibility profile (MRSA strain 2): S
- Drug sensibility profile (MRSA strain 3): S
- Drug sensibility profile (MRSA strain 4): S
- Drug sensibility profile (MRSA strain 5): S
- Drug sensibility profile (MRSA strain 6): S
- Drug sensibility profile (MRSA strain 7): S
- Drug sensibility profile (MRSA strain 8): S
- Drug sensibility profile (MRSA strain 9): S
- Drug sensibility profile (MRSA strain 10): S
- Drug sensibility profile (MRSA strain 12): S
- Drug sensibility profile (MRSA strain 13): S
- Drug sensibility profile (MRSA strain 14): S
- Drug sensibility profile (MRSA strain 15): S
- Drug sensibility profile (MRSA strain 16): S
- Drug sensibility profile (MRSA strain 17): S
- Drug sensibility profile (MRSA strain 18): S
- Drug sensibility profile (MRSA strain 21): S
- Drug sensibility profile (MRSA strain 23): S
- Drug sensibility profile (MRSA strain 24): S
- Drug sensibility profile (MRSA strain 30): S
- Drug sensibility profile (MRSA strain 31): S
- Drug sensibility profile (MRSA strain 34): S
- Drug sensibility profile (MRSA strain 35): S
- Drug sensibility profile (MRSA strain 40): S
- Drug sensibility profile (MRSA strain 43): S
- Drug sensibility profile (MRSA strain 46): S
- Drug sensibility profile (MRSA strain 48): S
- Drug sensibility profile (MRSA strain 49): S
- Drug sensibility profile (MRSA strain 50): S

SMILES: CC[C@H]1OC(=O)[C@H](C)[C@@H](O[C@H]2C[C@@](C)(OC)[C@@H](O)[C@H](C)O2)[C@H](C)[C@@H](O[C@@H]2O[C@H](C)C[C@H](N(C)C)[C@H]2O)[C@](C)(O)C[C@@H](C)C(=O)[C@H](C)[C@@H](O)[C@]1(C)O [ERI, erythromycin]
- Drug sensibility profile (MRSA strain 1): S
- Drug sensibility profile (MRSA strain 2): R
- Drug sensibility profile (MRSA strain 3): S
- Drug sensibility profile (MRSA strain 4): S
- Drug sensibility profile (MRSA strain 5): R
- Drug sensibility profile (MRSA strain 6): R
- Drug sensibility profile (MRSA strain 7): R
- Drug sensibility profile (MRSA strain 8): R
- Drug sensibility profile (MRSA strain 9): R
- Drug sensibility profile (MRSA strain 10): S
- Drug sensibility profile (MRSA strain 12): R
- Drug sensibility profile (MRSA strain 13): S
- Drug sensibility profile (MRSA strain 14): R
- Drug sensibility profile (MRSA strain 15): S
- Drug sensibility profile (MRSA strain 16): R
- Drug sensibility profile (MRSA strain 17): S
- Drug sensibility profile (MRSA strain 18): S
- Drug sensibility profile (MRSA strain 21): R
- Drug sensibility profile (MRSA strain 23): R
- Drug sensibility profile (MRSA strain 24): S
- Drug sensibility profile (MRSA strain 25): S
- Drug sensibility profile (MRSA strain 26): S S S S S S S
- Drug sensibility profile (MRSA strain 27): S
- Drug sensibility profile (MRSA strain 28): R
- Drug sensibility profile (MRSA strain 29): S
- Drug sensibility profile (MRSA strain 30): I
- Drug sensibility profile (MRSA strain 31): R
- Drug sensibility profile (MRSA strain 34): I
- Drug sensibility profile (MRSA strain 35): I
- Drug sensibility profile (MRSA strain 36): S S S S S S S
- Drug sensibility profile (MRSA strain 40): R
- Drug sensibility profile (MRSA strain 41): S
- Drug sensibility profile (MRSA strain 42): S
- Drug sensibility profile (MRSA strain 43): I
- Drug sensibility profile (MRSA strain 44): I
- Drug sensibility profile (MRSA strain 45): R
- Drug sensibility profile (MRSA strain 46): S
- Drug sensibility profile (MRSA strain 48): R
- Drug sensibility profile (MRSA strain 49): I
- Drug sensibility profile (MRSA strain 50): R
- Drug sensibility profile (MRSA strain 51): S
